Reference: the SangsterLogP compilation

Compound | logP
O=C(N[C@@H]1C[C@@H]1CF)c1ccccc1 | 1.12
O=C(c1ccccc1)N1CCC(C(F)(F)F)CC1 | 2.2
O=C(NCCCCF)c1ccccc1 | 1.56
O=C(NC1CCCCC1(F)F)c1ccccc1 (stereo not given) | 2.16
O=C(Nc1ccccc1)[C@H]1C[C@H]1C(F)F | 2.35
O=C(Nc1ccccc1)C1(CF)CCC1 | 1.88
O=C(c1ccccc1)N1CC(F)(F)C1 | 1.34
O=C(NCC(F)F)c1ccccc1 | 1.37
O=C(Nc1ccccc1)[C@@H]1C[C@@H]2C[C@@H]2C1 | 2.92
O=C(c1ccccc1)N1CCC1 | 1.13
O=C(c1ccccc1)N1CC2CCCC1(C(F)(F)F)C2 (stereo not given) | 2.67
O=C(NC1CCC(F)(F)CC1)c1ccccc1 | 2.32
O=C(Nc1ccccc1)[C@@H]1C[C@H]1C(F)(F)F | 2.98
O=C(Nc1ccccc1)C12CC(CO1)C2 | 1.54
O=C(N[C@@H]1C[C@@H]2[C@H](C1)C2(F)F)c1ccccc1 | 2.23
O=C(c1ccccc1)N1CC2COCC(C1)C2(F)F | 1.19
O=C(c1ccccc1)N1CC2CCC1C2 (stereo not given) | 1.65
O=C(NC1CC12CC2)c1ccccc1 (stereo not given) | 2.08
O=C(c1ccccc1)N1C[C@@H](F)C[C@H](F)C1 | 1.35
O=C(Nc1ccccc1)[C@H]1C[C@@H](C(F)(F)F)C1 | 2.72
O=C(Nc1ccccc1)C1CCCC(F)(F)C1 (stereo not given) | 2.72
O=C(N[C@@H]1CC[C@H]1F)c1ccccc1 | 1.64
O=C(c1ccccc1)N1CCC(CF)C1 (stereo not given) | 1.4
O=C(Nc1ccccc1)C1CC1 | 1.92
O=C(Nc1ccccc1)[C@@H]1CC[C@H]1CF | 2.11
